Assay results as given in paper PMC4319572 (Structure (London, England : 1993), 2015).
Where a chain is given by its changes, count along the chain named. One block for each molecule: values may come before it.

Assays:
[1] = molecular target: T1, Rgd1p F-BAR domain (residues 1-324) (Saccharomyces cerevisiae, UniProt P38339); test: competition off PtdIns; type: binding; settings: membranes with 10% (mole/mole) PtdIns(4,5)P2; competitive
T1 sequence (P38339 1-324): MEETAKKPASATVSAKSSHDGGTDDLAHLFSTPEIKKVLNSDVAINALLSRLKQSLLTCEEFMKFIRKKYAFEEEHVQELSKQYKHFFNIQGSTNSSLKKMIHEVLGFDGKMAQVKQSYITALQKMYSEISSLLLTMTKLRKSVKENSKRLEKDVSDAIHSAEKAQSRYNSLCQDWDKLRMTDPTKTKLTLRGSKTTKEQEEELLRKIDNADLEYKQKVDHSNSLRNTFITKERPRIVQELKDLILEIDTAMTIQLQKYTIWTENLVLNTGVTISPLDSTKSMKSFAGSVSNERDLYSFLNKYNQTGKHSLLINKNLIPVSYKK

[2] = molecular target: T2, Rgd1p F-BAR domain (residues 1-324) (Saccharomyces cerevisiae, UniProt P38339, R141D); test: surface plasmon resonance; type: binding; settings: 30 μM protein over 10% (mole/mole) PtdIns(4,5)P2 in DOPC
T2 sequence (P38339 1-324 R141D): T1 sequence (P38339 1-324) with R141D

[3] = molecular target: T3, Rgd1p F-BAR domain (residues 1-324) (Saccharomyces cerevisiae, UniProt P38339, K149E/K153E); test: surface plasmon resonance; type: binding; settings: 30 μM protein over 10% (mole/mole) PtdIns(4,5)P2 in DOPC
T3 sequence (P38339 1-324 K149E/K153E): T1 sequence (P38339 1-324) with K149E, K153E

[4] = molecular target: T4, Rgd1p F-BAR domain (residues 1-324) (Saccharomyces cerevisiae, UniProt P38339, R141D/K142E); test: surface plasmon resonance; type: binding; settings: 30 μM protein over 10% (mole/mole) PtdIns(4,5)P2 in DOPC
T4 sequence (P38339 1-324 R141D/K142E): T1 sequence (P38339 1-324) with R141D, K142E

[5] = molecular target: T5, Rgd1p F-BAR domain (residues 1-324) (Saccharomyces cerevisiae, UniProt P38339, R141D/K145E); test: surface plasmon resonance; type: binding; settings: 30 μM protein over 10% (mole/mole) PtdIns(4,5)P2 in DOPC
T5 sequence (P38339 1-324 R141D/K145E): T1 sequence (P38339 1-324) with R141D, K145E

[6] = molecular target: the molecule itself; test: crystal structure
[7] = molecular target: the molecule itself; test: AUC

Molecule: O=P(O)(O)O[C@H]1[C@H](O)[C@@H](OP(=O)(O)O)[C@H](O)[C@@H](OP(=O)(O)O)[C@H]1O [isolated headgroup of PtdIns(3,5)P2]
competition [1]: isolated headgroups of these three phosphoinositides were equally potent in their ability to compete

Molecule: O=P(O)(O)O[C@H]1[C@H](O)[C@@H](O)[C@H](OP(=O)(O)O)[C@@H](OP(=O)(O)O)[C@H]1O [isolated headgroup of PtdIns(3,4)P2]
competition [1]: isolated headgroups of these three phosphoinositides were equally potent in their ability to compete

% reduction of binding vs wild type at 30 μM protein [2]: > 75% | binding relative to wild type [3]: Glutamate substitutions at K149 and K153
Molecule: CCCCCCCC/C=C\CCCCCCCC(=O)OC[C@H](COP(=O)(O)O[C@@H]1[C@H](O)[C@H](O)[C@@H](OP(=O)(O)O)[C@H](OP(=O)(O)O)[C@H]1O)OC(=O)CCCCCCC/C=C\CCCCCCCC [dioleoyl-PtdIns(4,5)P2]
binding relative to wild type [4]: as seen for R141D/K142E and R141D/K145E doubly-mutated variants | binding relative to wild type [5]: as seen for R141D/K142E and R141D/K145E doubly-mutated variants

Molecule: O=P(O)(O)O[C@@H]1[C@H](O)[C@H](O)[C@@H](OP(=O)(O)O)[C@H](OP(=O)(O)O)[C@H]1O [isolated headgroup of PtdIns(4,5)P2]
competition [1]: isolated headgroups of these three phosphoinositides were equally potent in their ability to compete

B1: Rgd1p F-BAR domain (residues 24-333) (domain or fragment, S. cerevisiae, UniProt P38339 24-333, looked up)
chain: DDLAHLFSTPEIKKVLNSDVAINALLSRLKQSLLTCEEFMKFIRKKYAFEEEHVQELSKQYKHFFNIQGSTNSSLKKMIHEVLGFDGKMAQVKQSYITALQKMYSEISSLLLTMTKLRKSVKENSKRLEKDVSDAIHSAEKAQSRYNSLCQDWDKLRMTDPTKTKLTLRGSKTTKEQEEELLRKIDNADLEYKQKVDHSNSLRNTFITKERPRIVQELKDLILEIDTAMTIQLQKYTIWTENLVLNTGVTISPLDSTKSMKSFAGSVSNERDLYSFLNKYNQTGKHSLLINKNLIPVSYKKHPSMNHGQK
stoichiometry N [6]: 2

B2: Hof1p F-BAR domain (residues 1-300) (domain or fragment, S. cerevisiae, UniProt Q05080 1-300, looked up)
chain: MSYSYEACFWDPNDNGVNILLGHISQGIRSCDSMILFFKQRSELEKDYARRLGAITGKLDKDIGTNMDYGKLNETFNVVLSVEKARAQSHSKQSEILFRQIYTDTKAFAANLQARYTTLSGKIERLRMDKFNKKKGCEVLQKKLQDAQIRFRDLQLNENNMIGAKRVEHNKRELLKWESNSQEYKVQLDVLKQEYKASQKFWIHEWAQLSCELQEMENARISFLQSKLQQFATSSMETYILEQTKMDMLTNHLNSFTAADEISTFSKENGTGRLKHKTSKGDMNSSANWAQMSSISTTSK
modifications: selenomethionine (SeMet) in the protein used for the crystals
stoichiometry N [6]: 2 | Kd [7]: ~3000 nM
